# Laboratory results from ChEMBL document CHEMBL1201862, “PubChem BioAssay data set” (2004).
# The source made the active and inactive calls.
# Key:
# [1] = C. albicans growth with fluconazole, confirmation, fluorescence, retest (AID 2467); format: functional, cell-based
# [2] = molecular target: Heat shock protein HSP 90-alpha (Homo sapiens, UniProt P07900); format: functional, organism-based
# INS1 = assay: beta cell apoptosis inhibitors, cytokine rescue, dose response, luminescence, retest (AID 449756); format: functional, cell-based; details: Rattus norvegicus;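 also: cell death triggered by IL-1 beta plus TNF-alpha plus IFN-gamma mixture; protective hits raise ATP signal compared with cytokine alone wells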
# [3] = NIH-3T3 fibroblast cytotoxicity, dose response, cytotoxicity control, cell-based, fluorescence, Alamar Blue, secondary assay (AID 2327); format: functional;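 also: NIH-3T3 mouse fibroblasts cultured with fluconazole at 8 µg/mL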
# Estrogen receptor = molecular target: T1, Estrogen receptor (Homo sapiens, UniProt P03372); assay: potentiators of ERα–SRC-1 coactivator binding, dose response, biochemical, TR-FRET, ERα LBD (AID 737)
# T1 sequence (P03372 whole entry): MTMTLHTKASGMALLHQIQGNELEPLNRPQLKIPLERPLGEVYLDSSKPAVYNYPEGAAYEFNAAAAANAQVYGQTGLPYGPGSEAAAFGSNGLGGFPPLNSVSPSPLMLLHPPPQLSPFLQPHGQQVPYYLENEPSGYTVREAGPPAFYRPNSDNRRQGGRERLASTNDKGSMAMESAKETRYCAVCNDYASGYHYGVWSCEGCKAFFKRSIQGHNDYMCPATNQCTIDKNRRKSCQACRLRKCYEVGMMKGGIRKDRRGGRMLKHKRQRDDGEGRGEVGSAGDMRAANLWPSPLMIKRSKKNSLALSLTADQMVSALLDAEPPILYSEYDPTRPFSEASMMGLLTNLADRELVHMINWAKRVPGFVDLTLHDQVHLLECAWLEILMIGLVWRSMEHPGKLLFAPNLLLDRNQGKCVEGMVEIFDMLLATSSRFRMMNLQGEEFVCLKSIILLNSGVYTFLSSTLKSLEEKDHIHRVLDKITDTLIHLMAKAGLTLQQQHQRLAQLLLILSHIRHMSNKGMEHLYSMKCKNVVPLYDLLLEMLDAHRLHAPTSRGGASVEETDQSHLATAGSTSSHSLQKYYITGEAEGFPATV
# [4] = Shn3 3'UTR reporter inhibitors, dose response, cell-based, Clone20 osteoblasts, firefly luciferase, cherry-picked (AID 624132); format: functional;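 also: firefly luciferase luminescence from reporter carrying the Shn3 3'UTR in osteoblasts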
# [5] = molecular target: T2, Serine/threonine-protein phosphatase (Candida dubliniensis (strain CD36 / CBS 7987 / NCPF 3949 / NRRLY-17841) (Yeast), UniProt B9W6M3); assay: Fluorescence Cell-Based Secondary Assay to Identify Inhibitors of Calcineurin. [Related pubchem assays (depositor defined):AID1979, AID2007]; format: functional
# T2 sequence (B9W6M3 whole entry): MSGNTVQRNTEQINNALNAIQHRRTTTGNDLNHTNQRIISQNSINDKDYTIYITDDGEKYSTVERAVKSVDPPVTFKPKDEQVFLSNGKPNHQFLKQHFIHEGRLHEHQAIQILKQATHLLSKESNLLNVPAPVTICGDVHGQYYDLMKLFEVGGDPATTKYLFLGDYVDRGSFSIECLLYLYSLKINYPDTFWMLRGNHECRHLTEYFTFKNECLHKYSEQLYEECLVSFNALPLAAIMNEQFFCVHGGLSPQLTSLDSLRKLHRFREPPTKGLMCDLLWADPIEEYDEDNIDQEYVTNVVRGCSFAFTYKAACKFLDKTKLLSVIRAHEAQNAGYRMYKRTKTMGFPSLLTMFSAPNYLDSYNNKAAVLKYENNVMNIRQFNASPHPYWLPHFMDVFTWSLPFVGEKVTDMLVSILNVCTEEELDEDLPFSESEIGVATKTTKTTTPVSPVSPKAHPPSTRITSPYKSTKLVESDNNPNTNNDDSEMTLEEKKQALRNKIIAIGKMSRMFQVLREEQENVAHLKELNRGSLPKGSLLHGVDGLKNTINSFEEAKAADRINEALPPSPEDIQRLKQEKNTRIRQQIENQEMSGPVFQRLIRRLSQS
# [6] = molecular target: E3 ubiquitin-protein ligase Mdm2 (Homo sapiens, UniProt Q00987); assay: enhancers of MDM2-luciferase reporter signal, concentration-effect titration, project on inhibitors of MDM2 ubiquitin ligase, cellular assay, luminescent readout, 384-well plate format (AID 1394); format: functional;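 also: MDM2 E3 inhibitors raise luminescence so EC50 is for signal enhancement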
# E3 ubiquitin-protein ligase Mdm2, sequence (Q00987 whole entry): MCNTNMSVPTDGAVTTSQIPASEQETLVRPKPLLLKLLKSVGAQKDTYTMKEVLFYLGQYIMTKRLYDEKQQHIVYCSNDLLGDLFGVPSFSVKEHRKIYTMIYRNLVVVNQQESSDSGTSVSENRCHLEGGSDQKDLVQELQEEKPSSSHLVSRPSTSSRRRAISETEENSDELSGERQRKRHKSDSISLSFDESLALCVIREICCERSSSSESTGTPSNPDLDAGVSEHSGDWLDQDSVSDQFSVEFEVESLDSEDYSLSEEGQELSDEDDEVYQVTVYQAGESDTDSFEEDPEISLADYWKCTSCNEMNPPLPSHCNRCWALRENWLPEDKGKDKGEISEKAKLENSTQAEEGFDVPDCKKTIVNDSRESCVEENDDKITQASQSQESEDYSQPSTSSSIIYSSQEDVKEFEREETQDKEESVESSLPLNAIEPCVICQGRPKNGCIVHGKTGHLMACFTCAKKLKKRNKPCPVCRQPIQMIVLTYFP
# [7] = control 3'UTR Renilla luciferase suppression, dose response, counter-screen for Shn3 inhibitor project, cell-based, Clone20-Shn3RL, cherry-picked (AID 624133); format: functional
# [8] = molecular target: T2, Serine/threonine-protein phosphatase; assay: calcineurin pathway inhibitors in yeast reporter, dose response, S. cerevisiae, CDRE-lacZ, luminescence, secondary (AID 2388); format: functional, cell-based;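 also: yeast reporter cells carrying a calcineurin-responsive lacZ construct stimulated with calcium chloride; luminescent beta-galactosidase reporter signal in whole cells rather than isolated phosphatase activity; potency for inhibition where a drop in reporter signal means calcineurin blockade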
# [9] = NIH-3T3 fibroblast cytotoxicity, dose response, cytotoxicity control for antifungal single agent project, cell-based, Alamar Blue, dry powder (AID 602188); format: functional
# [10] = HepG2 cell cytotoxicity, dose response, cytotoxicity control for Shn3 inhibitor project, CellTiter-Glo, cherry-picked (AID 624134); format: functional, cell-based
# [11] = molecular target: ATP-dependent molecular chaperone HSP82 (Candida albicans (strain WO-1) (Yeast), UniProt C4YTQ8); assay: loss of DOC-induced GRE-beta-galactosidase reporter signal, dose response, Hsp90 inhibitor project, S. cerevisiae, luminescence (AID 2400); format: functional, cell-based;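 also: beta-galactosidase luminescence from glucocorticoid response element reporter as proxy for Hsp90 function; inhibitor potency where signal loss means Hsp90 inhibition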
# ATP-dependent molecular chaperone HSP82, sequence (C4YTQ8 whole entry): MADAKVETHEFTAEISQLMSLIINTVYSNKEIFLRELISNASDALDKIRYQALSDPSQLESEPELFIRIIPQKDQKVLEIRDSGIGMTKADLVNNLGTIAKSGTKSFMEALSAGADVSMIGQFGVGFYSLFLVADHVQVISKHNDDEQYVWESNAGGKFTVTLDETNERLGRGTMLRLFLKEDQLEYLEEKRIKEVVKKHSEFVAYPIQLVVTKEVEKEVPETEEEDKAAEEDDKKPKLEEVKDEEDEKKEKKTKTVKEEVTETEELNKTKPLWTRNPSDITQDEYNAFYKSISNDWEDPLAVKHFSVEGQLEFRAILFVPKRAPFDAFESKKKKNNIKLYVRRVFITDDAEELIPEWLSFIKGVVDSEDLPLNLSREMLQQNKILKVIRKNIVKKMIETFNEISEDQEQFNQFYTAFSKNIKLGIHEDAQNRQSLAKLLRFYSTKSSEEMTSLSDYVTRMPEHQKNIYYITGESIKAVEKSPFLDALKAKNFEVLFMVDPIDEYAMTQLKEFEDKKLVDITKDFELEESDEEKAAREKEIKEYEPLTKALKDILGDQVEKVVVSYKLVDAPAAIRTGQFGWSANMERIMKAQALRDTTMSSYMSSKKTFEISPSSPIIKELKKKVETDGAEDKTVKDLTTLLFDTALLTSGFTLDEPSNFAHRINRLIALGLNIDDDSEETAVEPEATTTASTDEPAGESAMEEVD
# HEK293 [12] = assay: inhibitors of LMP1-driven NF-kB reporter, dose response, cell-based, HEK293, luciferase, cherry-pick (AID 588343); format: functional; details: Homo sapiens
# HEK293 [13] = assay: SAR Analysis of small molecule inhibitors of B-cell specific antigen receptor-induced NF-kB activation in a HEK-293T cell line using a luminescence assay - Set 2. [Related pubchem assays (depositor defined):AID435022, AID435025, AID489021]; format: functional, cell-based; details: Homo sapiens
# Jurkat = assay: SAR Analysis of small molecule inhibitors of […] specific antigen receptor-induced NF-kB activation in a Jurkat cell line using a luminescence assay - Set 3. [Related pubchem assays (depositor defined):AID435022, AID435025, AID465]; format: functional, cell-based; details: Homo sapiens
# HEK293 [14] = assay: cytotoxicity in HEK293T NF-kB-Luc cells, SAR follow-up, cytotoxicity control for NF-kB activator project, cell-based, resazurin fluorescence (AID 493251); format: functional; details: Homo sapiens
# [15] = molecular target: T3, Endoribonuclease toxin MazF (Escherichia coli K-12, UniProt P0AE70); assay: fluorescent RNA oligo signal without MazF, dose response, counter-screen for MazEF activator project, biochemical, fluorescence, single-stranded RNase substrate (AID 588502); format: functional
# T3 sequence (P0AE70 whole entry): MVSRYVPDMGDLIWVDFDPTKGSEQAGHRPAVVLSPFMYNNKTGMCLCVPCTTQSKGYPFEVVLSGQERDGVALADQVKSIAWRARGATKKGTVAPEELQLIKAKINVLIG
# [16] = molecular target: UDP-galactopyranose mutase (Mycobacterium tuberculosis, UniProt P9WIQ1); assay: Inhibitors of Mycobacterium tuberculosis UDP-galactopyranose mutase (UGM) enzyme Measured in Biochemical System Using Plate Reader - 2105-02_Inhibitor_Dose_CherryPick_Activity. [Related pubchem assays (depositor defined):AID504439]
# UDP-galactopyranose mutase, sequence (P9WIQ1 whole entry): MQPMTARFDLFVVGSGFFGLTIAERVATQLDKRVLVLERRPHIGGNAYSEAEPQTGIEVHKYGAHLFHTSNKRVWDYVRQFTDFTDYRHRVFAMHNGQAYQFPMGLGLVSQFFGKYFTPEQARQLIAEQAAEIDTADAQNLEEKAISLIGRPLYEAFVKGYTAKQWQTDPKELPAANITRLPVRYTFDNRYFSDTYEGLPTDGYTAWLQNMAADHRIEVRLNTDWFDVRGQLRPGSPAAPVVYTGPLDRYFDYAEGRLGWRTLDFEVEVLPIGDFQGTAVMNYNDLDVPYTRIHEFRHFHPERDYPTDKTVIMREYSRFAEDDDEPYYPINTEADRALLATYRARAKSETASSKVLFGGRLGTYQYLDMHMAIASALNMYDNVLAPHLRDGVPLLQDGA
# [17] = molecular target: T3, Endoribonuclease toxin MazF; assay: MazF toxin RNase activators, dose response, biochemical, fluorescence, single-stranded RNA substrate, uHTS hits (AID 588481); format: functional
structure (smiles),measurement,setting,value
O=C(Nc1nc(-c2ccccn2)cs1)c1ccc(Br)s1,EC50,[1],1.81 µM (active)
same,AC50,[2],1.83 µM (active)
same,AC50,INS1,1.03 µM (active)
same,EC50,[3],> 160 µM (inactive)
same,EC50,Estrogen receptor,24.5 µM (not active)
same,AC50,[4],1 µM (active)
same,EC50,[5],15.7 µM (active)
same,EC50,[6],22.7 µM (not active)
same,AC50,[7],0.743 µM (active)
same,EC50,[8],> 180 µM (inactive)
same,AC50,[9],0.991 µM (active)
same,AC50,[10],3.78 µM (active)
same,EC50,[11],4.31 µM (active)
same,AC50,HEK293 [12],0.637 µM (active)
CCOc1ccccc1NC(=O)CCc1nc(-c2ccc(C(C)(C)C)cc2)no1,IC50,HEK293 [13],0.46 µM (active)
same,IC50,Jurkat,1.02 µM (active)
same,IC50,HEK293 [14],> 80 µM (inactive)
Cc1cccc(N2C(=O)NC(=O)/C(=C/c3cc4c(cc3[N+](=O)[O-])OCO4)C2=O)c1,EC50,[15],> 99 µM (inactive)
same,AC50,[16],45 µM (active)
same,EC50,[17],> 99 µM (inactive)
